In US20240390408A1, “METHOD OF TREATING HEPATITIS C VIRUS IN PATIENTS” (Altesa BioSciences, Inc., priority 2023, published 2024):
Where two headings read alike, the source gives them in different places.

Test: Tissue concentrations of Formula I and its metabolites in Göttingen pigs after a single oral or intravenous dose (LC-MS/MS)
Assay type: in vivo
Conditions: for concentration at 2 h / concentration at 12 h / concentration at 3 h / concentration at 24 h: both sexes, Göttingen, pig (minipig)
Protocol: Tissue samples were collected at 3, 12, and 24 hours post-dose (hpd) for the oral dose and 2 and 12 hpd for the intravenous dose, snap-frozen in liquid nitrogen, and stored at −60 to −90° C. until shipment on dry ice for analysis by LC-MS/MS.
Animals were weighed the day prior to dosing to determine the dosing volume.
The compound of Formula I was dissolved in a PEG 400/DI water (60%/40% v/v) vehicle for oral dosing. For IV dosing the compound of Formula I was dissolved in a PEG 400/Cremophor RH 40/Saline (40%/10%/50% v/v) vehicle and passed through a sterile filter. […] Animals were euthanized by euthanasia solution administration under sedation, if necessary (e.g., acepromazine and or/Telazol®), followed by a Testing Facility SOP approved method to ensure death (e.g., exsanguination). Tissues were collected from two animals per sex per timepoint. Tissue samples, including the brain, heart, kidney, liver, lung, spleen, pancreas, bone marrow, duodenum, jejunum, and colon, were collected in duplicate (approximately 50±20 mg each) and placed into two separate reinforced homogenization tubes per organ (one tissue sample per tube). The exact weight (in milligrams) of each sample was recorded. Tissues samples were flash frozen in liquid nitrogen and stored at −60 to −90° C. until shipment on dry ice for analysis by LC-MS/MS.
Mobile phase A consisted of 50 mM ammonium bicarbonate buffer in HPLC grade water pH 9.8 and mobile phase B consisted of pure acetonitrile. […] Mass spectrometry analysis was performed on a QTrap 7500 Mass Spectrometer (Sciex, Framingham, MA, USA) using negative mode electrospray ionization (ESI) in multiple reaction monitoring (MRM) mode. Data analysis was performed using SCIEX OS Software (Sciex, Framingham, MA, USA).
Tissue samples were collected at 3, 12, and 24 hours post-dose for the oral dose and 2 and 12 hour post-dose for the intravenous dose.

[1] = 2-3 hours after IV 25 mg/kg or PO 125 mg/kg dosing
[2] = kidney, single intravenous bolus of Formula I 25 mg/kg, 2 hpd, read-out: Tissue concentration, kidney
[3] = kidney, single oral dose of Formula I 125 mg/kg, 3 hpd, read-out: Tissue concentration, kidney
[4] = liver, single intravenous bolus of Formula I 25 mg/kg, 2 hpd, read-out: Tissue concentration, liver
[5] = liver, single intravenous bolus of Formula I 25 mg/kg, 12 hpd, read-out: Tissue concentration, liver
[6] = liver, single oral dose of Formula I 125 mg/kg, 3 hpd, read-out: Tissue concentration in Göttingen pig liver (Table 7)
[7] = liver, single oral dose of Formula I 125 mg/kg, 3 hpd, read-out: Tissue concentration, liver
[8] = liver, single oral dose of Formula I 125 mg/kg, 12 hpd, read-out: Tissue concentration in Göttingen pig liver (Table 7)
[9] = liver, single oral dose of Formula I 125 mg/kg, 12 hpd, read-out: Tissue concentration, liver
[10] = lung, single intravenous bolus of Formula I 25 mg/kg, 2 hpd, read-out: Tissue concentration, lung
[11] = lung, single intravenous bolus of Formula I 25 mg/kg, 12 hpd, read-out: Tissue concentration, lung
[12] = lung, single oral dose of Formula I 125 mg/kg, 3 hpd, read-out: Tissue concentration, lung
[13] = spleen, single intravenous bolus of Formula I 25 mg/kg, 2 hpd, read-out: Tissue concentration, spleen
[14] = spleen, single intravenous bolus of Formula I 25 mg/kg, 12 hpd, read-out: Tissue concentration, spleen
[15] = liver, single oral dose of Formula I 125 mg/kg, 24 hpd

C[C@@]1(O)[C@H](O)[C@@H](CO)O[C@H]1n1ccc(=O)[nH]c1=S [Formula VI]
Brain level, additional fold lower than heart, lung and spleen [1]: approximately 10 fold | Kidney and liver levels relative to heart, lung and spleen (fold higher) [1]: approximately 10 fold | Additional decrease of levels in all organs (24 hpd after oral dose, all organs): 2-3 fold | Decrease of levels in all organs (12 hours post oral dose, all organs): 4-6 fold | concentration at 2 h (brain, single intravenous bolus of Formula I 25 mg/kg, 2 hpd, read-out: Tissue concentration, brain): 140 ± 56.7 ng/g | concentration at 12 h (brain, single intravenous bolus of Formula I 25 mg/kg, 12 hpd, read-out: Tissue concentration, brain): 6.4 ± 12.8 ng/g | concentration at 3 h (brain, single oral dose of Formula I 125 mg/kg, 3 hpd, read-out: Tissue concentration, brain): 192 ± 77.9 ng/g | concentration at 12 h (brain, single oral dose of Formula I 125 mg/kg, 12 hpd, read-out: Tissue concentration, brain): 111 ± 38.6 ng/g | concentration at 24 h (brain, single oral dose of Formula I 125 mg/kg, 24 hpd, read-out: Tissue concentration, brain): 37.9 ± 9.15 ng/g | concentration at 2 h (heart, single intravenous bolus of Formula I 25 mg/kg, 2 hpd, read-out: Tissue concentration, heart): 1990 ± 195 ng/g | concentration at 12 h (heart, single intravenous bolus of Formula I 25 mg/kg, 12 hpd, read-out: Tissue concentration, heart): 57.3 ± 23.3 ng/g | concentration at 3 h (heart, single oral dose of Formula I 125 mg/kg, 3 hpd, read-out: Tissue concentration, heart): 3370 ± 645 ng/g | concentration at 12 h (heart, single oral dose of Formula I 125 mg/kg, 12 hpd, read-out: Tissue concentration, heart): 533 ± 213 ng/g | concentration at 24 h (heart, single oral dose of Formula I 125 mg/kg, 24 hpd, read-out: Tissue concentration, heart): 240 ± 27.7 ng/g | concentration at 2 h [2]: 25400 ± 5560 ng/g | concentration at 12 h (kidney, single intravenous bolus of Formula I 25 mg/kg, 12 hpd, read-out: Tissue concentration, kidney): 701 ± 48.7 ng/g | concentration at 3 h [3]: 29400 ± 2170 ng/g | concentration at 12 h (kidney, single oral dose of Formula I 125 mg/kg, 12 hpd, read-out: Tissue concentration, kidney): 7420 ± 1440 ng/g | concentration at 24 h (kidney, single oral dose of Formula I 125 mg/kg, 24 hpd, read-out: Tissue concentration, kidney): 2740 ± 503 ng/g | concentration at 2 h [4]: 7960 ± 1530 ng/g | concentration at 12 h [5]: 201 ± 126 ng/g | concentration at 3 h [6]: 66.3 ± 23.7 µM | concentration at 3 h [7]: 18200 ± 6500 ng/g | concentration at 12 h [8]: 9.46 ± 5.56 µM | concentration at 12 h [9]: 2600 ± 1530 ng/g | concentration at 24 h (liver, single oral dose of Formula I 125 mg/kg, 24 hpd, read-out: Tissue concentration in Göttingen pig liver (Table 7)): 4.08 ± 1.84 µM | concentration at 24 h (liver, single oral dose of Formula I 125 mg/kg, 24 hpd, read-out: Tissue concentration, liver): 1120 ± 505 ng/g | concentration at 2 h [10]: 2330 ± 130 ng/g | concentration at 12 h [11]: 93.9 ± 18.8 ng/g | concentration at 3 h [12]: 3580 ± 1060 ng/g | concentration at 12 h (lung, single oral dose of Formula I 125 mg/kg, 12 hpd, read-out: Tissue concentration, lung): 536 ± 101 ng/g | concentration at 24 h (lung, single oral dose of Formula I 125 mg/kg, 24 hpd, read-out: Tissue concentration, lung): 242 ± 85.7 ng/g | concentration at 2 h [13]: 1620 ± 181 ng/g | concentration at 12 h [14]: 49.2 ± 9.7 ng/g | concentration at 3 h (spleen, single oral dose of Formula I 125 mg/kg, 3 hpd, read-out: Tissue concentration, spleen): 3010 ± 433 ng/g | concentration at 12 h (spleen, single oral dose of Formula I 125 mg/kg, 12 hpd, read-out: Tissue concentration, spleen): 539 ± 195 ng/g | concentration at 24 h (spleen, single oral dose of Formula I 125 mg/kg, 24 hpd, read-out: Tissue concentration, spleen): 292 ± 139 ng/g | 12 hpd levels after IV dosing, fold lower than corresponding levels after PO dosing (each organ, 12 hpd, IV 25 mg/kg vs PO 125 mg/kg): approximately 10 fold

CC1(O)[C@@H](O)[C@@H](COP(=O)(O)OP(=O)(O)OP(=O)(O)O)O[C@H]1n1ccc(=O)[nH]c1=S (stereo partly drawn) [Formula V]
concentration at 12 h (125 mg/kg, liver, 12 hpd after oral dosing with Formula I, assumed tissue density of 1 g/mL, read-out: Concentration present in the liver): ~1 µM | concentration at 12 h (lung, 25 mg/kg, lungs, 12 hrs post-dose after IV dosing with Formula I, read-out: Concentration maintained in lungs): ~1 µM | concentration at 2 h [2]: 4410 ± 2040 ng/g | concentration at 3 h [3]: 613 ± 280 ng/g | concentration at 2 h [4]: 2610 ± 892 ng/g | concentration at 12 h [5]: 62.8 ± 126 ng/g | concentration at 3 h [6]: 12.9 ± 12.3 µM | concentration at 3 h [7]: 6670 ± 6310 ng/g | concentration at 12 h [8]: 0.88 ± 1.05 µM | concentration at 12 h [9]: 452 ± 541 ng/g | concentration at 2 h [10]: 3620 ± 2770 ng/g | concentration at 12 h [11]: 455 ± 263 ng/g | concentration at 3 h [12]: 170 ± 29.5 ng/g | concentration at 2 h [13]: 318 ± 181 ng/g | concentration at 12 h [14]: 47.5 ± 95 ng/g | Tissue concentration, brain (brain, single intravenous bolus of Formula I 25 mg/kg, 2 hpd): BQL | Tissue concentration, brain (brain, single intravenous bolus of Formula I 25 mg/kg, 12 hpd): BQL | Tissue concentration, brain (brain, single oral dose of Formula I 125 mg/kg, 3 hpd): not detected and BQL | Tissue concentration, brain (brain, single oral dose of Formula I 125 mg/kg, 12 hpd): BQL | Tissue concentration, brain (brain, single oral dose of Formula I 125 mg/kg, 24 hpd): BQL | Tissue concentration, heart (heart, single intravenous bolus of Formula I 25 mg/kg, 2 hpd): 405 ± 149 ng/g | Tissue concentration, heart (heart, single intravenous bolus of Formula I 25 mg/kg, 12 hpd): 140 ± 32.0 ng/g | Tissue concentration, heart (heart, single oral dose of Formula I 125 mg/kg, 3 hpd): 64.3 ± 75.4 ng/g | Tissue concentration, heart (heart, single oral dose of Formula I 125 mg/kg, 12 hpd): BQL | Tissue concentration, heart (heart, single oral dose of Formula I 125 mg/kg, 24 hpd): BQL | Tissue concentration, kidney (kidney, single intravenous bolus of Formula I 25 mg/kg, 2 hpd): 4410 ± 2040 ng/g | Tissue concentration, kidney (kidney, single intravenous bolus of Formula I 25 mg/kg, 12 hpd): not detectable and BQL | Tissue concentration, kidney (kidney, single oral dose of Formula I 125 mg/kg, 3 hpd): 613 ± 280 ng/g | Tissue concentration, kidney (kidney, single oral dose of Formula I 125 mg/kg, 12 hpd): BQL | Tissue concentration, kidney (kidney, single oral dose of Formula I 125 mg/kg, 24 hpd): BQL | Tissue concentration, liver (liver, single intravenous bolus of Formula I 25 mg/kg, 2 hpd): 2610 ± 892 ng/g | Tissue concentration, liver (liver, single intravenous bolus of Formula I 25 mg/kg, 12 hpd): 62.8 ± 126 ng/g | Tissue concentration, liver (liver, single oral dose of Formula I 125 mg/kg, 3 hpd): 6670 ± 6310 ng/g | Tissue concentration, liver (liver, single oral dose of Formula I 125 mg/kg, 12 hpd): 452 ± 541 ng/g | Tissue concentration in Göttingen pig liver (Table 7) [15]: BQL | Tissue concentration, liver [15]: BQL | Tissue concentration, lung (lung, single intravenous bolus of Formula I 25 mg/kg, 2 hpd): 3620 ± 2770 ng/g | Tissue concentration, lung (lung, single intravenous bolus of Formula I 25 mg/kg, 12 hpd): 455 ± 263 ng/g | Tissue concentration, lung (lung, single oral dose of Formula I 125 mg/kg, 3 hpd): 170 ± 29.5 ng/g | Tissue concentration, lung (lung, single oral dose of Formula I 125 mg/kg, 12 hpd): BQL | Tissue concentration, lung (lung, single oral dose of Formula I 125 mg/kg, 24 hpd): BQL | Tissue concentration, spleen (spleen, single intravenous bolus of Formula I 25 mg/kg, 2 hpd): 318 ± 181 ng/g | Tissue concentration, spleen (spleen, single intravenous bolus of Formula I 25 mg/kg, 12 hpd): 47.5 ± 95.0 ng/g | Tissue concentration, spleen (spleen, single oral dose of Formula I 125 mg/kg, 3 hpd): not detected and BQL | Tissue concentration, spleen (spleen, single oral dose of Formula I 125 mg/kg, 12 hpd): BQL | Tissue concentration, spleen (spleen, single oral dose of Formula I 125 mg/kg, 24 hpd): BQL
